Test system: CD68+ monocytes/TAMs
Test: Single cell RNA sequencing of tumor infiltrating immune cells from iBP tumors
Assay type: in vivo, mouse
Source text: Single Cell RNA sequencing. iBP tumors (three) were pooled and a single cell suspension was isolated. Live tumor infiltrating immune cells (CD45^+ L/D^−) were isolated by cell sorting and resuspended in PBS+0.04% BSA at a concentration of 1000 cells/μL. In total, 10,000 cells were loaded on the 10× Genomics Chromium Controller Single-Cell Instrument (10× Genomics) mixed with reverse transcription reagents along with gel beads and oil to generate single-cell gel beads in emulsions (GEMs). GEM-RT was performed in an Eppendorf Mastercycler Pro (cat #950030020, Eppendorf): 53° C. for 45 min; 85° C. for 5 min; then held at 4° C. After reverse transcription, GEMs were disrupted and the single-stranded cDNA was purified using Dynabeads MyOne Silane beads (cat #37002D, Thermo Fisher Scientific). cDNA was amplified using the Eppendorf Mastercycler Pro (cat #950030020, Eppendorf): 98° C. for 3 min; cycled 11×: 98° C. for 15 s, 67° C. for 20 s, and 72° C. for 1 min; 72° C. for 1 min; held at 4° C. The amplified cDNA product was purified with the SPRIselect Reagent Kit (0.6×SPRI) (cat #B23318, Beckman Coulter). Indexed sequencing libraries were constructed using the reagents in the Chromium Single-Cell 3′ version 3 Library Kit, following these steps: (1) fragmentation, end repair and A-tailing; (2) SPRIselect cleanup; (3) adapter ligation; (4) post ligation cleanup with SPRIselect; (5) sample index PCR; (6) PostindexPCR cleanup. The barcoded sequencing libraries were analyzed using quantitative PCR (cat #KK4824, KAPA Biosystems Library Quantification Kit for Illumina platforms). Sequencing libraries were transferred to the Duke University Center for Genomic and Computational Biology (GCB) and were loaded on a NovaSeq6000 (Illumina) for sequencing.
scRNA seq data analysis. Sequencing data was de-multiplexed, trimmed, filtered, aligned, and quantified using the Cell Ranger pipeline (10× Genomics). Reads were aligned to CSC mm10 transcriptome and UMI count matrices for each sample was obtained. The Seurat v3.1 package was used to count matrices. For each sample, cells that express <200 or >2000 genes and cells that express >5% of mitochondrial genes were removed. Highly variable genes were identified and used for principal component analysis. Cell subpopulations were identified using the ‘FindNeighbors’ function with first 30 PCs and ‘FindClusters’ function from Seurat R package with default resolution parameters. Cells were then clustered and visualized using uniform manifold approximation and projection (UMAP) (Liu, Int. J. Mol. Sci. 2020, 21, 16). DE Wilcoxon test analysis was used to identify genes that define a cluster using known cell type signatures and genes that differ within clusters between treatments.
Pseudotime Analysis. To infer the developmental trajectories in the monocyte/macrophage lineages, Monocle3 was used to perform the pseudotime analysis where UMAP coordinates from Seurat were used as input (Cao et al., Nature 2019, 566, 498-502). The graphtest function implemented in Monocle3 was used to find genes that vary with pseudotime where genes with q<0.01 were identified as pseudotime-dependent genes. Cells were divided into four pseudotime blocks (e.g., 0-5, 5-10, 10-15, and 15-21) based on their pseudotime estimate.

[1] = CD68+ cells, Genes down-regulated upon E2 treatment
[2] = CD68+ cells, Genes up-regulated upon E2 treatment

17β-estradiol [E2]
AA467197 avg_logFC [1]: −1.1474 | Actg1 avg_logFC [1]: −0.2725 | Adam8 avg_logFC [1]: −0.5315 | Arg1 avg_logFC [1]: −1.491 | Arl4c avg_logFC [1]: −0.3255 | Ass1 avg_logFC [1]: −0.2981 | B4galt1 avg_logFC [1]: −0.2593 | Bhlhe40 avg_logFC [1]: −0.4214 | Bnip3 avg_logFC [1]: −0.3241 | Cbl avg_logFC [1]: −0.2587 | Ccl24 avg_logFC [1]: −1.196 | Cd44 avg_logFC [1]: −0.3636 | Cd53 avg_logFC [1]: −0.2831 | Cdh1 avg_logFC [1]: −0.4682 | Cish avg_logFC [1]: −0.2878 | Clec7a avg_logFC [1]: −0.6823 | Clic4 avg_logFC [1]: −0.2836 | Cox17 avg_logFC [1]: −0.2516 | Csrnp1 avg_logFC [1]: −0.2796 | Cxcl2 avg_logFC [1]: −0.3108 | Dazap2 avg_logFC [1]: −0.253 | Ddx3x avg_logFC [1]: −0.2648 | Dusp5 avg_logFC [1]: −0.2644 | Emp1 avg_logFC [1]: −0.3016 | Epb41l2 avg_logFC [1]: −0.2668 | Ero1l avg_logFC [1]: −0.3681 | Errfi1 avg_logFC [1]: −0.2612 | Etv3 avg_logFC [1]: −0.2533 | Fam129b avg_logFC [1]: −0.2732 | Gatm avg_logFC [1]: −0.4728 | Gm13339 avg_logFC [1]: −0.3235 | Gm42418 avg_logFC [1]: −0.3099 | Grina avg_logFC [1]: −0.2527 | Havcr2 avg_logFC [1]: −0.2738 | Hbegf avg_logFC [1]: −0.2883 | Hexim1 avg_logFC [1]: −0.2598 | Hif1a avg_logFC [1]: −0.3016 | Hilpda avg_logFC [1]: −0.3818 | Hk2 avg_logFC [1]: −0.3161 | Hnrnpa2b1 avg_logFC [1]: −0.2507 | Hnrnpu avg_logFC [1]: −0.2502 | Id2 avg_logFC [1]: −0.3235 | Ifi202b avg_logFC [1]: −0.4589 | Ighm avg_logFC [1]: −0.2694 | Il1rn avg_logFC [1]: −0.7087 | Itgax avg_logFC [1]: −0.2718 | Jak2 avg_logFC [1]: −0.3294 | Lars2 avg_logFC [1]: −0.2737 | Lcp1 avg_logFC [1]: −0.279 | Lyz1 avg_logFC [1]: −0.3109 | Mafb avg_logFC [1]: −0.2732 | Malt1 avg_logFC [1]: −0.4497 | Mir6236 avg_logFC [1]: −0.4795 | Mmp14 avg_logFC [1]: −0.4234 | N4bp1 avg_logFC [1]: −0.2723 | Nampt avg_logFC [1]: −0.2539 | Nfkb1 avg_logFC [1]: −0.3187 | Pabpc1 avg_logFC [1]: −0.3065 | Plek avg_logFC [1]: −0.3121 | Prkcd avg_logFC [1]: −0.4952 | Ptgs2 avg_logFC [1]: −0.2589 | Qsox1 avg_logFC [1]: −0.2981 | Rbbp6 avg_logFC [1]: −0.2693 | Rbms1 avg_logFC [1]: −0.306 | Rbpj avg_logFC [1]: −0.2858 | Retnla avg_logFC [1]: −1.013 | Rgcc avg_logFC [1]: −0.3356 | Rhob avg_logFC [1]: −0.3443 | Rnf19b avg_logFC [1]: −0.4071 | Rpl23a avg_logFC [1]: −0.3395 | Scd2 avg_logFC [1]: −0.3267 | Sdc4 avg_logFC [1]: −0.5729 | Slc2a1 avg_logFC [1]: −0.2726 | Slc7a2 avg_logFC [1]: −0.4582 | Slc7a11 avg_logFC [1]: −0.3846 | Slpi avg_logFC [1]: −0.3695 | Smox avg_logFC [1]: −0.2743 | Spp1 avg_logFC [1]: −0.5367 | Srgn avg_logFC [1]: −0.3751 | Tapbp avg_logFC [1]: −0.2542 | Tes avg_logFC [1]: −0.2663 | Tgfbi avg_logFC [1]: −0.2874 | Tgm2 avg_logFC [1]: −0.345 | Timp1 avg_logFC [1]: −0.3922 | Ywhaz avg_logFC [1]: −0.3465 | Zeb2 avg_logFC [1]: −0.2704 | Zfp36l2 avg_logFC [1]: −0.2732 | AF251705 avg_logFC [2]: 0.2639 | Al607873 avg_logFC [2]: 0.2786 | Apoe avg_logFC [2]: 0.569 | Arl5c avg_logFC [2]: 0.2656 | Bst2 avg_logFC [2]: 0.2961 | C1qa avg_logFC [2]: 0.4214 | C1qb avg_logFC [2]: 0.5188 | C1qc avg_logFC [2]: 0.4208 | Ccrl2 avg_logFC [2]: 0.3263 | Cd14 avg_logFC [2]: 0.2715 | Cd48 avg_logFC [2]: 0.2715 | Cfh avg_logFC [2]: 0.2625 | Chil3 avg_logFC [2]: 1.253 | Ckb avg_logFC [2]: 0.2847 | Cst3 avg_logFC [2]: 0.3446 | Dpep2 avg_logFC [2]: 0.3725 | Fcer1g avg_logFC [2]: 0.3137 | Fcrls avg_logFC [2]: 0.5638 | Gdf3 avg_logFC [2]: 0.2851 | Gm10076 avg_logFC [2]: 0.3757 | Gm10222 avg_logFC [2]: 0.2577 | H2-D1 avg_logFC [2]: 0.2808 | Hint1 avg_logFC [2]: 0.2548 | Id3 avg_logFC [2]: 0.2699 | Ifi27l2a avg_logFC [2]: 0.5245 | Ifitrn2 avg_logFC [2]: 0.374 | Ifitrn3 avg_logFC [2]: 0.2755 | Itga6 avg_logFC [2]: 0.3437 | Itm2b avg_logFC [2]: 0.4104 | Lrg1 avg_logFC [2]: 0.3663 | Ly6c2 avg_logFC [2]: 0.2657 | Lyz2 avg_logFC [2]: 0.2885 | Mgl2 avg_logFC [2]: 0.5712 | Mt1 avg_logFC [2]: 0.4006 | Pf4 avg_logFC [2]: 0.4715 | Rgs10 avg_logFC [2]: 0.2599 | Rpl3 avg_logFC [2]: 0.278 | Rpl9 avg_logFC [2]: 0.2585 | Rpl21 avg_logFC [2]: 0.2567 | Rpl29 avg_logFC [2]: 0.2548 | Rplp0 avg_logFC [2]: 0.333 | Rps2 avg_logFC [2]: 0.2742 | Rps11 avg_logFC [2]: 0.2704 | Rps20 avg_logFC [2]: 0.2922 | S100a8 avg_logFC [2]: 0.7858 | Thbs1 avg_logFC [2]: 0.3189 | Trem2 avg_logFC [2]: 0.4831 | Tspo avg_logFC [2]: 0.2604 | Tmem176 avg_logFC (CD68+ cells, Genes up-regulated upon E2 treatment, first Tmem176 line): 0.3209 | Tmem176 avg_logFC (CD68+ cells, Genes up-regulated upon E2 treatment, second Tmem176 line): 0.3394 | inflammation/chemokine genes (Itm2b, C1q) and M2 macrophage markers (Tspo, Vegfa, Tgm2) in CD68+ cells (E2 group): upregulated | TAM markers (Trem2, Apoe, Thbs1, Spp1) in CD68+ monocyte/TAM population (E2 treated tumors): expressed | CD68+ monocytes/TAMs clusters (E2 vs placebo): expansion and significant changes in gene expression | cluster 1 (M1-like TAMs) (E2 vs placebo): remained unchanged | cluster 3 (inflammatory monocytes) (E2 vs placebo): increased | cluster 8 (E2 vs placebo): expansion | cluster 9 (immune-suppressive phenotype) (E2 vs placebo): significant expansion | cluster 15 (M1-like TAMs) (E2 vs placebo): decreased | cluster 16 (patrolling tissue resident monocytes) (E2 vs placebo): increased | cluster 22 (E2 vs placebo): remained unchanged | cluster 30 (E2 vs placebo): expansion | percentage of Ly6C^hi monocytes (cluster 2) (E2 vs placebo): remained the same
